Consider 29 compounds from US11787802B2, “Dihydrobenzimidazolones for medical treatment” (C4 Therapeutics, Inc., priority 2017, dated 2023).

The target in this assay is hCereblon(M1-L442)_hDDB1(M1-H1140) (Homo sapiens (Human), UniProt Q96SW2). As to the kind of experiment: Fluorescence direct binding protocol (tryptophan fluorescence titration). The conditions noted are these: fluorescence titration at 20° C., excited at 280 nm, recorded at 340 nm; protein 5.0 E−8 M; assay buffer 50 mM Hepes 7.4 200 mM NaCl; read-out: Fluorescence h-Cereblon_DDB1 Mean Kd_EQ. An outline of the steps: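 At 20° C., protein at constant concentration was titrated with ligand in DMSO over at least 12 steps, exciting tryptophan at 280 nm and reading emission at 340 nm. Intensities were corrected for dilution and filter effect, and Kd was fitted assuming 1:1 binding.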
Sequence of hCereblon(M1-L442)_hDDB1(M1-H1140) (Q96SW2 whole entry): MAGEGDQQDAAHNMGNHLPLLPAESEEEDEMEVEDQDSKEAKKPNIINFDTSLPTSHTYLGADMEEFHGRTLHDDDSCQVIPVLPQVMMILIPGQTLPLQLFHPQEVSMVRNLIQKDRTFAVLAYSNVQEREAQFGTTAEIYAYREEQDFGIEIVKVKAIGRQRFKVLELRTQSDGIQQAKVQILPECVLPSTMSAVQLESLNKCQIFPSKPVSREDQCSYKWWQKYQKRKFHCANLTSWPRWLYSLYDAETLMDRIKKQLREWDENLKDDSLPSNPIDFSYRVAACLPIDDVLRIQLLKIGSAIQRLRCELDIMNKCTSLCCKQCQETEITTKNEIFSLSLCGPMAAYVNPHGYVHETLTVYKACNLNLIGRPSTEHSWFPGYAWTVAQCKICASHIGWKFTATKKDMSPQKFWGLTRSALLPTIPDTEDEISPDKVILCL
Sequence of hCereblon(M1-L442)_hDDB1(M1-H1140) (Q16531 whole entry partner): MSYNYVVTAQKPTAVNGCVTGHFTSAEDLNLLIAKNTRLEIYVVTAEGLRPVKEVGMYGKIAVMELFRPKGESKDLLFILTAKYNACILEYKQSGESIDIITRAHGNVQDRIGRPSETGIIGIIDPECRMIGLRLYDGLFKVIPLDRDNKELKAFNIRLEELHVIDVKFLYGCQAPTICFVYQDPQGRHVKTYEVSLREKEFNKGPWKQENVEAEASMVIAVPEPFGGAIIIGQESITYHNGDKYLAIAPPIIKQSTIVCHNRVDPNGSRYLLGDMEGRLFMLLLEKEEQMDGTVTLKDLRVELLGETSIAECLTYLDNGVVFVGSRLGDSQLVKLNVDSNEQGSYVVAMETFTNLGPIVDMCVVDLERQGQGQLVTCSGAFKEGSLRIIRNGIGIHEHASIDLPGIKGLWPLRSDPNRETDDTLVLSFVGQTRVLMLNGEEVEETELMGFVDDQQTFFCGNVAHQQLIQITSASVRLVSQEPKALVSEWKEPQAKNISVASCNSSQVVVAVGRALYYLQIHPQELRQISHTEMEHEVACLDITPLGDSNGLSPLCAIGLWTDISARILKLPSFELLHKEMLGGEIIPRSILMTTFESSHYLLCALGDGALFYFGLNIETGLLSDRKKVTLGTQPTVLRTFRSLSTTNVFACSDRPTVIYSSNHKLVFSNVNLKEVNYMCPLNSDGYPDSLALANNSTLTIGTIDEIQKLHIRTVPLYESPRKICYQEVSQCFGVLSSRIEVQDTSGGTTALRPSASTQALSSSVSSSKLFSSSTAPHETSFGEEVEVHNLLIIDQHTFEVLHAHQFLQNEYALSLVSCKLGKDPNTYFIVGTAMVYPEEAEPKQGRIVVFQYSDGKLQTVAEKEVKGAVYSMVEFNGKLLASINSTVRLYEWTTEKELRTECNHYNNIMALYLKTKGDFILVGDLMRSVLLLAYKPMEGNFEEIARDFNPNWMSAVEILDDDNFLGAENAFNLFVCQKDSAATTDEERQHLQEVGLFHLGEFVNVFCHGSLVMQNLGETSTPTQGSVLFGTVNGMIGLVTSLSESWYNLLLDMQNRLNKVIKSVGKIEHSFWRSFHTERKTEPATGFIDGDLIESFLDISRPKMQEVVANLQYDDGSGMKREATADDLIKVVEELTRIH

pKd: −log10 of the molar value.

Take `COc1ccccc1N1CCN(C(=O)Nc2ccc3[nH]c(=O)[nH]c3c2)CC1` [Example 128, 4-(2-Methoxyphenyl)-N-(2-oxo-2,3-dihydro-1H-benzo[d]imidazol-5-yl)piperazine-1-carboxamide]: the pKd was 7.85.

On to `CC(=O)NCCC(=O)Nc1ccc2[nH]c(=O)[nH]c2c1` [Example 90, 3-Acetamido-N-(2-oxo-2,3-dihydro-1H-benzo[d]imidazol-5-yl)propanamide], for which the pKd is 7.72.

Turning to `CNC(=O)c1nc2ccccc2n1-c1ccc2[nH]c(=O)[nH]c2c1` [Example 102, N-Methyl-1-(2-oxo-1,3-dihydrobenzimidazol-5-yl)benzimidazole-2-carboxamide], the pKd is 6.89.

With `CC(=O)Nc1ccc(CC(=O)Nc2ccc3[nH]c(=O)[nH]c3c2)cc1` [Example 78, 2-(4-Acetamidophenyl)-N-(2-oxo-2,3-dihydro-1H-benzo[d]imidazol-5-yl)acetamide], the pKd is 7.64.

Turning to `O=C(NCc1ccccc1)Nc1ccc2[nH]c(=O)[nH]c2c1` [Example 94, 1-Benzyl-3-(2-oxo-2,3-dihydro-1H-benzo[d]imidazol-5-yl)urea], the pKd was above 9.00.

`CNC(=O)c1ccc2c(c1)nc(C(F)(F)F)n2-c1ccc2[nH]c(=O)[nH]c2c1` [Example 13, N-Methyl-2′-oxo-2-(trifluoromethyl)-2′,3′-dihydro-1′H-[1,5′-bibenzo[d]imidazole]-5-carboxamide]: the pKd was 8.15.

For the compound `O=c1[nH]c2ccc(-n3cnc4ccccc43)cc2[nH]1` [Example 83, 5-(Benzimidazol-1-yl)-1,3-dihydrobenzimidazol-2-one], the pKd is 8.52.

As for `CC(C)(C)OC(=O)N1CCc2c(C(=O)Nc3ccc4[nH]c(=O)[nH]c4c3)cccc21` [Example 143, tert-Butyl 4-((2-oxo-2,3-dihydro-1H-benzo[d]imidazol-5-yl)carbamoyl)indoline-1-carboxylate], the pKd was 6.80.

`COc1cccc(-c2ncccc2C(=O)Nc2ccc3[nH]c(=O)[nH]c3c2)c1` [Example 138, 2-(3-Methoxyphenyl)-N-(2-oxo-2,3-dihydro-1H-benzo[d]imidazol-5-yl)nicotinamide]: the pKd is 6.96.

`O=c1[nH]c2ccc(OCc3ccccc3)cc2[nH]1` [Example 154, 5-(Benzyloxy)-1,3-dihydro-2H-benzo[d]imidazol-2-one]: the pKd is 7.77.

Take `CNC(=O)c1ccc(C(=O)Nc2ccc3[nH]c(=O)[nH]c3c2)cn1` [Example 133, N2-Methyl-N5-(2-oxo-2,3-dihydro-1H-benzo[d]imidazol-5-yl)pyridine-2,5-dicarboxamide]: the pKd is 6.92.

Regarding `CC(C)c1nc2ccccc2n1-c1ccc2c(c1)[nH]c(=O)n2C` [Example 34, 2-Isopropyl-1′-methyl-1′,3′-dihydro-2′H-[1,5′-bibenzo[d]imidazol]-2′-one], the pKd was 7.72.

As for `COC(=O)c1ccc2c(c1)CN(c1ccc3[nH]c(=O)[nH]c3c1)C2=O` [Example 112, Methyl 1-oxo-2-(2-oxo-1,3-dihydrobenzimidazol-5-yl)isoindoline-5-carboxylate], the pKd was 7.24.

With `Cn1c(=O)n(C)c2cc(NC(=O)c3ccco3)ccc21` [Example 25, N-(1,3-Dimethyl-2-oxo-benzimidazol-5-yl)furan-2-carboxamide], the pKd is 6.95.

On to `O=C(Nc1ccc2[nH]c(=O)[nH]c2c1)N1CCN(Cc2ccc(Cl)cc2)CC1` [Example 135, 4-(4-Chlorobenzyl)-N-(2-oxo-2,3-dihydro-1H-benzo[d]imidazol-5-yl)piperazine-1-carboxamide], for which the pKd is 8.15.

With `Cc1ccccc1-c1ccccc1C(=O)Nc1ccc2[nH]c(=O)[nH]c2c1` [Example 122, 2′-Methyl-N-(2-oxo-2,3-dihydro-1H-benzo[d]imidazol-5-yl)-[1,1′-biphenyl]-2-carboxamide], the pKd was 6.14.

Consider `Cn1c(=O)[nH]c2nc(-c3ccccc3)ccc21` [Example 44, 1-Methyl-5-phenyl-3H-imidazo[4,5-b]pyridin-2-one], for which the pKd is above 9.00.

For the compound `O=C(Nc1ccc2[nH]c(=O)[nH]c2c1)c1ccccc1Cc1ccccc1` [Example 123, 2-Benzyl-N-(2-oxo-2,3-dihydro-1H-benzo[d]imidazol-5-yl)benzamide], the pKd was 7.66.

As to `O=C(c1cnc2[nH]c(=O)[nH]c2c1)N1CCCc2ccccc21` [Example 95, 6-(1,2,3,4-Tetrahydroquinoline-1-carbonyl)-1,3-dihydro-2H-imidazo[4,5-b]pyridin-2-one], the pKd was 7.70.

For the compound `CC(C)(C)OC(=O)N1CCC(S(=O)(=O)Nc2ccc3[nH]c(=O)[nH]c3c2)CC1` [Example 125, tert-Butyl 4-(N-(2-oxo-2,3-dihydro-1H-benzo[d]imidazol-5-yl)sulfamoyl)piperidine-1-carboxylate], the pKd is 7.70.

For `CC(=O)Nc1ccc(NCc2ccc3[nH]c(=O)[nH]c3c2)cc1` [Example 146, N-(4-(((2-Oxo-2,3-dihydro-1H-benzo[d]imidazol-5-yl)methyl)amino)phenyl)acetamide], the pKd was 7.74.

For the compound `CC(=O)N1CCN(C(=O)c2ccc3[nH]c(=O)[nH]c3c2)CC1` [Example 22, 5-(4-Acetylpiperazine-1-carbonyl)-1H-benzo[d]imidazol-2(3H)-one], the pKd is 6.99.

As to `CC(=O)NCCc1nc2ccccc2n1-c1ccc2[nH]c(=O)[nH]c2c1` [Example 80, N-[2-[1-(2-Oxo-1,3-dihydrobenzimidazol-5-yl)benzimidazol-2-yl]ethyl]acetamide], the pKd was 7.82.

On to `O=C(Nc1ccc2[nH]c(=O)[nH]c2c1)c1ccccc1-c1ccncc1` [Example 136, N-(2-Oxo-2,3-dihydro-1H-benzo[d]imidazol-5-yl)-2-(pyridin-4-yl)benzamide], for which the pKd was 7.10.

For `CC(=O)N1CCc2c(C(=O)Nc3ccc4[nH]c(=O)[nH]c4c3)cccc21` [Example 145, 1-Acetyl-N-(2-oxo-2,3-dihydro-1H-benzo[d]imidazol-5-yl)indoline-4-carboxamide], the pKd is 7.08.

For `CC(=O)N1CCC(N(C)C(=O)c2ccc3[nH]c(=O)[nH]c3c2)CC1` [Example 86, N-(1-Acetylpiperidin-4-yl)-N-methyl-2-oxo-2,3-dihydro-1H-benzo[d]imidazole-5-carboxamide], the pKd is 8.40.

With `Cn1cncc1-c1cc(-c2nc3ccccc3n2-c2ccc3c(c2)n(C)c(=O)n3C)c2ccccc2n1` [Example 31, 1′,3′-Dimethyl-2-(2-(1-methyl-1H-imidazol-5-yl)quinolin-4-yl)-1′,3′-dihydro-2′H-[1,5′-bibenzo[d]imidazol]-2′-one], the pKd was 8.15.

With `CCc1nc2cc(C(=O)NC)ccc2n1-c1ccc2[nH]c(=O)[nH]c2c1` [Example 4, 2-Ethyl-N-methyl-2′-oxo-2′,3′-dihydro-1′H-[1,5′-bibenzo[d]imidazole]-5-carboxamide], the pKd was 7.44.

`CNC(=O)c1ccc2c(c1)nc(-c1ccnc3ccccc13)n2-c1ccc2[nH]c(=O)[nH]c2c1` [Example 3, N-Methyl-2′-oxo-2-(quinolin-4-yl)-2′,3′-dihydro-1′H-[1,5′-bibenzo[d]imidazole]-5-carboxamide]: the pKd is 7.41.
